System: WT OPS, G51A, T17M, P171Q, P180A
Assay: Subcellular localization
Type: cell-based, human
Conditions: 10 µM all-trans retinal, P180A in COS-7 cells

## CC1=C(/C=C/C(C)=C/C=C/C(C)=C/C=O)C(C)(C)CCC1 [all-trans retinal]
  effect on subcellular localization (PCC and RetP1/1D4): no effect
